In patent US20240391889A1, “ANTIMICROBIAL COMPOUNDS AND THE METHODS OF USE” (priority 2021, published 2024):
≈ marks a conversion by molar mass, not a printed value. Numbered stars: 1 amine (or outer) side, 2 acyl side, 3 side chain; on linkers, the order of the positions; unused ones are H or OH. Square brackets hold non-standard residues; d marks the D form. Peptide text beside a SMILES is read from it. * marks the point of attachment. N(1S-cyclohexylethyl)Gly = C[C@H](NCC(=O)O)C1CCCCC1; Gly(Nα-4-Cl-benzyl) = O=C(O)CNCc1ccc(Cl)cc1; N(4-Br-benzyl)Gly = O=C(O)CNCc1ccc(Br)cc1; N(2-thienylmethyl)Gly = O=C(O)CNCc1cccs1; N(tridecyl)Gly = CCCCCCCCCCCCCNCC(=O)O; N(4-F-Bzl)Gly = O=C(O)CNCc1ccc(F)cc1; X1 = CC(c1ccccc1)N(CC(=O)[*:2])[*:1]; Gly(N-2-aminoethyl) = NCCNCC(=O)O; Myristoyl = CCCCCCCCCCCCCC(=O)*; NFurfurylGly = O=C(O)CNCc1ccco1; Gly(N(CH2)3NH2) = NCCCNCC(=O)O; Gly(N-cHex) = O=C(O)CNC1CCCCC1; Nphe = O=C(O)CNCc1ccccc1; NPrGly = CCCNCC(=O)O; Nlys = NCCCCNCC(=O)O; Sar = CNCC(=O)O

Tests used:
C. neoformans = format: cell-based, Cryptococcus neoformans; conditions: 72 h
Excerpt: (§1) This screening led to the discovery of RMG9-11 (FIG. 2C). The minimum inhibitory concentration (MIC) of resynthesized RMG9-11 was initially determined against C. albicans, C. neoformans, and the ESKAPE bacteria via CSLI guidelines (CLSI. Methods for Dilution Antimicrobial Susceptibility Tests for Bacteria That Grow Aerobically, 11th Edition. Clinical and Laboratory Standards Institute (2018); CLSI. Reference method for broth dilution antifungal susceptibility testing of yeasts; approved standard-third edition; CLSI document M27-A3. Clinical and Laboratory Standards Institute (2008)). […] C. albicans clinical isolates include a reference strain (M1), fluconazole susceptible strains (M4 and M6), and fluconazole resistant strains (M2, M3, M5, and M7). ATCC 64124 is multidrug resistant C. albicans strain that is resistant to amphotericin B, fluconazole, caspofungin, and flucytosine. All MICs were performed under CSLI guidelines in triplicate on at least three different days.
(§2) The minimum inhibitory concentration (MIC) of peptoids against fungal pathogens C. albicans and C. neoformans was determined following CLSI guidelines (Reference method for broth dilution antifungal susceptibility testing of yeasts; approved standard-third edition; CLSI document M27-A3.” CLSI. 2008.). Colonies were transferred from a streaked YPD plate to 0.85% saline to reach an OD530 between 0.18 and 0.25. This inoculant was diluted 1:100 into RPMI-MOPS and then further diluted 1:20 into RPMI-MOPS. 198 μL of inoculant was seeded into each well of a 96 well black-walled plate. 2-fold serial dilutions of 100× peptoid solutions were prepared in water and 2 μL of peptoid were added to each well in triplicate. […] MIC was defined as the lowest concentration of compound preventing fungal growth. This assay was repeated 3 times on separate days with each compound.

C. albicans = format: cell-based, Candida albicans; conditions: 24 h
Excerpt: as §1, §2

in vitro = format: cell-based; conditions: human, HepG2 hepatocellular carcinoma cells
Method: The mammalian cell lines that were tested (HepG2, 3T3, and HaCat) were incubated with RMG9-11 for 72 hours and cell viability was determined via mitochondrial activity using an MTT reduction assay where viable cells reduce MTT to formazan. Toxicity is reported as the concentration of the peptoid that results in a 50% reduction in viable cells, termed toxicity dose 50% or TD50. […] SR is defined as the TD50 divided by MIC and provides a measure of the therapeutic window for a compound. Typically for most lead compounds that would continue through development and optimization, a SR of 10 is preferred while an SR of 100 is more desirable for a compound moving into preclinical animal model evaluation.
Hepatocellular carcinoma (HepG2), mouse fibroblast (3T3), and human keratinocyte (HaCat) cells were cultured in Dulbeco modified eagle media (DMEM) containing 10% fetal bovine serum (FBS) and 1% penicillin, streptomycin, and glutamine (PSG) at 37° C. and 5% CO2. Cells were collected and adjusted to […] to 4×10^5 cells/mL in phenol-red free DMEM and plated (100 μL) 96 well plates. 2-fold serial dilutions of 10× peptoid (11.1 μL) were added to each well in triplicate. Water (vehicle) was used as a negative control. Plates were incubated at 37° C. in 5% CO2 for 72 hours. Thiazolyl blue tetrazolium bromide (MTT) was added to each well (5 mg/mL; 20 μL) and incubated for 3 hours. Media was removed, DMSO (100 μL) was added, and plates were incubated at 37° C. for 10 minutes. Plates were read on a SPECTRAMAX M5 plate reader (Abs. 570 nm). The concentration of compound resulting in a 50% reduction in growth compared to control (toxicity dose 50%; TD50) was determined using GRAFIT. This procedure was repeated three times on separate days.

| SMILES | MIC C. neoformans (C. neoformans) | MIC C. albicans (C. albicans) | CC50 at 72 h (in vitro) |
| --- | --- | --- | --- |
| CCCCCCCCCCCCCNCC(=O)N(CCC)CC(=O)N(CC(=O)N(CCCCN)CC(=O)N(CC(=O)N(CC(=O)N(CCCN)CC(N)=O)Cc1ccccc1)Cc1ccco1)Cc1ccccc1 [Compound 911-M3] (H-[N(tridecyl)Gly][NPrGly][Nphe][Nlys][NFurfurylGly][Nphe][Gly(N(CH2)3NH2)]-NH2) | 1.56 µg/mL (≈ 1.52 µM) | 6.25 µg/mL (≈ 6.07 µM) | 87.5 ± 10.8 µg/mL (≈ 85 µM) |
| CCCCCCCCCCCCCNCC(=O)N(CCC)CC(=O)N(CC(=O)N(CCCCN)CC(=O)N(CC(=O)N(CC(=O)N(CCCN)CC(N)=O)Cc1ccccc1)Cc1ccco1)Cc1ccc(F)cc1 [Compound 911-M4] (H-[N(tridecyl)Gly][NPrGly][N(4-F-Bzl)Gly][Nlys][NFurfurylGly][Nphe][Gly(N(CH2)3NH2)]-NH2) | 1.56 µg/mL (≈ 1.49 µM) | 6.25 µg/mL (≈ 5.97 µM) | 120 ± 36.9 µg/mL (≈ 114 µM) |
| CCCCCCCCCCCCCNCC(=O)N(CCC)CC(=O)N(CC(=O)N(CCCCN)CC(=O)N(CC(=O)N(CC(=O)N(CCCN)CC(N)=O)Cc1ccccc1)Cc1ccco1)Cc1ccc(Cl)cc1 [Compound 911-M5] (H-[N(tridecyl)Gly][NPrGly][Gly(Nα-4-Cl-benzyl)][Nlys][NFurfurylGly][Nphe][Gly(N(CH2)3NH2)]-NH2) | 1.56 µg/mL (≈ 1.47 µM) | 6.25 to 12.5 µg/mL | 114 ± 32.5 µg/mL (≈ 108 µM) |
| CCCCCCCCCCCCCNCC(=O)N(CCC)CC(=O)N(CC(=O)N(CCCCN)CC(=O)N(CC(=O)N(CC(=O)N(CCCN)CC(N)=O)Cc1ccccc1)Cc1ccco1)Cc1ccc(Br)cc1 [Compound 911-M6] (H-[N(tridecyl)Gly][NPrGly][N(4-Br-benzyl)Gly][Nlys][NFurfurylGly][Nphe][Gly(N(CH2)3NH2)]-NH2) | 1.56 to 3.13 µg/mL | 6.25 µg/mL (≈ 5.64 µM) | 108 ± 13.6 µg/mL (≈ 97 µM) |
| CCCCCCCCCCCCCNCC(=O)N(CCC)CC(=O)N(CC(=O)N(CCCCN)CC(=O)N(CC(=O)N(CC(=O)N(CCCN)CC(N)=O)Cc1ccccc1)Cc1ccco1)Cc1ccco1 [Compound 911-M7] (H-[N(tridecyl)Gly][NPrGly][NFurfurylGly][Nlys][NFurfurylGly][Nphe][Gly(N(CH2)3NH2)]-NH2) | 3.13 µg/mL (≈ 3.07 µM) | 12.5 µg/mL (≈ 12.3 µM) | 187 ± 21.5 µg/mL (≈ 183 µM) |
| CCCCCCCCCCCCCNCC(=O)N(CCC)CC(=O)N(CC(=O)N(CCCCN)CC(=O)N(CC(=O)N(CC(=O)N(CCCN)CC(N)=O)Cc1ccccc1)Cc1ccco1)Cc1cccs1 [Compound 911-M8] (H-[N(tridecyl)Gly][NPrGly][N(2-thienylmethyl)Gly][Nlys][NFurfurylGly][Nphe][Gly(N(CH2)3NH2)]-NH2) |  | 6.25 µg/mL (≈ 6.04 µM) | 108 ± 34.6 µg/mL (≈ 104 µM) |
| CCCCCCCCCCCCCNCC(=O)N(CCC)CC(=O)N(CC(=O)N(CCCCN)CC(=O)N(CC(=O)N(CC(=O)N(CCCN)CC(N)=O)Cc1ccccc1)Cc1ccco1)C1CCCCC1 [Compound 911-M9] (H-[N(tridecyl)Gly][NPrGly][Gly(N-cHex)][Nlys][NFurfurylGly][Nphe][Gly(N(CH2)3NH2)]-NH2) | 1.56 µg/mL (≈ 1.53 µM) | 12.5 µg/mL (≈ 12.2 µM) | 99.5 ± 22 µg/mL (≈ 97.4 µM) |
| CCCCCCCCCCCCCNCC(=O)N(CCC)CC(=O)N(CC(=O)N(CCCCN)CC(=O)N(CC(=O)N(CC(=O)N(CCCN)CC(N)=O)Cc1ccccc1)Cc1ccco1)[C@@H](C)C1CCCCC1 [Compound 911-M11] (H-[N(tridecyl)Gly][NPrGly][N(1S-cyclohexylethyl)Gly][Nlys][NFurfurylGly][Nphe][Gly(N(CH2)3NH2)]-NH2) | 1.56 µg/mL (≈ 1.49 µM) | 3.13 to 6.25 µg/mL | 82.5 ± 11.5 µg/mL (≈ 78.6 µM) |
| CCCCCCCCCCCCCC(=O)NCC(=O)N(CCN)CC(=O)N(CC(=O)N(CCCCN)CC(=O)N(CC(=O)N(CC(=O)N(CCCN)CC(N)=O)Cc1ccccc1)Cc1ccco1)[C@@H](C)C1CCCCC1 [Compound 911-M12] (Myristoyl-G[Gly(N-2-aminoethyl)][N(1S-cyclohexylethyl)Gly][Nlys][NFurfurylGly][Nphe][Gly(N(CH2)3NH2)]-NH2) | 3.13 µg/mL (≈ 2.9 µM) | 6.25 µg/mL (≈ 5.8 µM) | 145 ± 35 µg/mL (≈ 134 µM) |
| CCCCCCCCCCCCCNCC(=O)N(CCN)CC(=O)N(CC(=O)N(CCCCN)CC(=O)N(CC(=O)N(CC(=O)N(CCCN)CC(N)=O)Cc1ccccc1)Cc1ccco1)[C@@H](C)C1CCCCC1 [Compound 911-M13] (H-[N(tridecyl)Gly][Gly(N-2-aminoethyl)][N(1S-cyclohexylethyl)Gly][Nlys][NFurfurylGly][Nphe][Gly(N(CH2)3NH2)]-NH2) | 3.13 µg/mL (≈ 2.98 µM) | 6.25 µg/mL (≈ 5.95 µM) | 140 ± 33 µg/mL (≈ 133 µM) |
| CCCN(CC(=O)N(CC(=O)N(CCCCN)CC(=O)N(CC(=O)N(CC(=O)N(CCCN)CC(N)=O)Cc1ccccc1)Cc1ccco1)C(C)c1ccccc1)C(=O)CNC (stereo not shown) [SAR 1] (H-[Sar][NPrGly][X1][Nlys][NFurfurylGly][Nphe][Gly(N(CH2)3NH2)]-NH2) |  | >100 µg/mL | > 200 µg/mL |
| CCCCCCCCCCCCCNCC(=O)N(C)CC(=O)N(CC(=O)N(CCCCN)CC(=O)N(CC(=O)N(CC(=O)N(CCCN)CC(N)=O)Cc1ccccc1)Cc1ccco1)C(C)c1ccccc1 (stereo not shown) [SAR 2] (H-[N(tridecyl)Gly][Sar][X1][Nlys][NFurfurylGly][Nphe][Gly(N(CH2)3NH2)]-NH2) |  | 12.5 µg/mL (≈ 12.3 µM) | 83.9 ± 5.7 µg/mL (≈ 82.6 µM) |
| CCCCCCCCCCCCCNCC(=O)N(CCC)CC(=O)N(C)CC(=O)N(CCCCN)CC(=O)N(CC(=O)N(CC(=O)N(CCCN)CC(N)=O)Cc1ccccc1)Cc1ccco1 [SAR 3] (H-[N(tridecyl)Gly][NPrGly][Sar][Nlys][NFurfurylGly][Nphe][Gly(N(CH2)3NH2)]-NH2) |  | 50 µg/mL (≈ 52.5 µM) | 194 ± 7.5 µg/mL (≈ 204 µM) |
| CCCCCCCCCCCCCNCC(=O)N(CCC)CC(=O)N(CC(=O)N(C)CC(=O)N(CC(=O)N(CC(=O)N(CCCN)CC(N)=O)Cc1ccccc1)Cc1ccco1)C(C)c1ccccc1 (stereo not shown) [SAR 4] (H-[N(tridecyl)Gly][NPrGly][X1][Sar][NFurfurylGly][Nphe][Gly(N(CH2)3NH2)]-NH2) |  | 6.25 µg/mL (≈ 6.34 µM) | 61.8 ± 16.1 µg/mL (≈ 62.7 µM) |
| CCCCCCCCCCCCCNCC(=O)N(CCC)CC(=O)N(CC(=O)N(CCCCN)CC(=O)N(C)CC(=O)N(CC(=O)N(CCCN)CC(N)=O)Cc1ccccc1)C(C)c1ccccc1 (stereo not shown) [SAR 5] (H-[N(tridecyl)Gly][NPrGly][X1][Nlys][Sar][Nphe][Gly(N(CH2)3NH2)]-NH2) |  | 12.5 to 25 µg/mL | 157 ± 10.1 µg/mL (≈ 160 µM) |
| CCCCCCCCCCCCCNCC(=O)N(CCC)CC(=O)N(CC(=O)N(CCCCN)CC(=O)N(CC(=O)N(C)CC(=O)N(CCCN)CC(N)=O)Cc1ccco1)C(C)c1ccccc1 (stereo not shown) [SAR 6] (H-[N(tridecyl)Gly][NPrGly][X1][Nlys][NFurfurylGly][Sar][Gly(N(CH2)3NH2)]-NH2) |  | 25 µg/mL (≈ 25.8 µM) | 156 ± 4.7 µg/mL (≈ 161 µM) |
| CCCCCCCCCCCCCNCC(=O)N(CCC)CC(=O)N(CC(=O)N(CCCCN)CC(=O)N(CC(=O)N(CC(=O)N(C)CC(N)=O)Cc1ccccc1)Cc1ccco1)C(C)c1ccccc1 (stereo not shown) [SAR 7] (H-[N(tridecyl)Gly][NPrGly][X1][Nlys][NFurfurylGly][Nphe][Sar]-NH2) |  | 6.25 µg/mL (≈ 6.25 µM) | 57.7 ± 11 µg/mL (≈ 57.7 µM) |
